Results reported in patent US20060029654A1, “Analgesic patch for sports injury rehabilitation medicine and method to alleviate pain” (priority 2004, published 2006).

Test system: pain in the right shoulder and right lateral thigh (right rotator cuff tendonitis and right lateral fasciaitis)
Settings: prior treatment history; injection into the pain trigger zone

C[C@]12CCC(=O)C=C1CC[C@@H]1[C@@H]2C(=O)C[C@@]2(C)[C@H]1CC[C@]2(O)C(=O)CO [cortisone]
duration of temporary pain relief: 4 to 6 weeks
